The results in this text go back to article PMC11003996 (Cell Discovery, 2024).

Test [1] deals with SARS-CoV-2 3CLpro L50F/E166V in HEK 293T cells. The class given is cell-based.
Test [2] relates to SARS-CoV-2 3CLpro T25I. It is filed as biochemical.
Test [3] concerns SARS-CoV-2 3CLpro M49I. The class given is biochemical.
The test system of test [4] is SARS-CoV-2 3CLpro T25V in HEK 293T cells. The class given is cell-based.
The subject of test [5] is SARS-CoV-2 3CLpro T25V. The class given is biochemical.
Test [6] concerns SARS-CoV-2 3CLpro M49I in HEK 293T cells. It is filed as cell-based.

“And” between values parts separate entries of the source, which are not always exact repeats. Equal entries are not always repeated.

For `CC(C)(C)[C@H](NC(=O)C(F)(F)F)C(=O)N1C[C@H]2[C@@H]([C@H]1C(=O)N[C@H](C#N)C[C@@H]1CCNC1=O)C2(C)C` [nirmatrelvir], the “Inhibition of 3CLpro in HEK 293T cells: Fold change in IC50 (relative to WT)” value in test [1] came out at 18.4.
As to `Cn1cnc(Cn2c(=O)[nH]/c(=N\c3cc4cn(C)nc4cc3Cl)n(Cc3cc(F)c(F)cc3F)c2=O)n1` [ensitrelvir], the entries for the “Fold change in IC50 (relative to WT)” value in test [2], in test [3] and in test [5] were 3.2, 4.5 and 5.7, respectively. Moreover, the “Inhibition of 3CLpro in HEK 293T cells: Fold change in IC50 (relative to WT)” value is 3.3 in test [4]; 21.8 and ~20 in test [6].
